This note sets out measurements from patent publication US9227979B2, “Fluorescent antagonists of the A3 adenosine receptor” (The United States of America, as represented by the …, priority 2012, dated 2016).

Like-named read-outs stand apart in the source and are kept apart here.

One may read the Ki as a dissociation constant, usually derived from enzyme kinetics or from competition with a known ligand. Usually melting point stands for the temperature, or range, at which the solid turns liquid.

Data set [1] deals with hA1 AR (Homo sapiens (Human), UniProt P30542). The experiment in a line: Radioligand membrane binding assay at hA1 AR ([3H]R-PIA). Conditions: for Ki: CHO cells expressing hA1AR, agonist radioligand [3H]R-PIA, read-out: A1 Ki. The method, then: (§1) For cell cultures used in radioligand binding assays, after harvest and homogenization, the cells were centrifuged at 200×g for 10 min, and the pellet was re-suspended in 50 mM Tris-HCl buffer (pH 7.5), containing 10 mM MgCl2. The suspension was homogenized with an electric homogenizer for 10 s and was then re-centrifuged at 20,000×g for 20 min at 4° C. The resultant membrane pellets were resuspended in buffer in the presence of 3 units/ml adenosine deaminase, and the suspension was stored at −80° C. until the binding experiments. The protein concentration was measured using the Bradford assay. Radioligand membrane binding assays
Sequence of hA1 AR (P30542 whole entry): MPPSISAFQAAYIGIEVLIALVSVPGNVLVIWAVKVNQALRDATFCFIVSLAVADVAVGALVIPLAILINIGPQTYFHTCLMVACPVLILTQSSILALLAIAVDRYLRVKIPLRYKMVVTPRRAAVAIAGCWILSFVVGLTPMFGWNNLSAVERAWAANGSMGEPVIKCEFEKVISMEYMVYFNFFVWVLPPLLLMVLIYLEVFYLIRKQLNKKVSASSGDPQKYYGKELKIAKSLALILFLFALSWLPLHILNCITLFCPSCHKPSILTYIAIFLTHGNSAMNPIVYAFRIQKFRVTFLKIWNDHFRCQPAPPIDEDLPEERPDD

Data set [2] addresses hA2AAR (Homo sapiens (Human), UniProt P29274). The experiment in a line: Radioligand membrane binding assay at hA2A AR ([3H]CGS21680). The settings on record: for Ki: read-out: A2A Ki. Here is the method:
as §1

Data set [3] has as its target hA3AR (Homo sapiens (Human), UniProt P0DMS8). The experiment in a line: Radioligand membrane binding assay at hA3AR ([125I]I-AB-MECA). The settings on record: read-out: A3 Ki. Here is the method: as §1
[4] abbreviates: Table 1, inhibition of radioligand binding at 10 μM.
The mark [5] stands for this setting: Table 1, HEK293 cells expressing hA2AAR, [3H]CGS21680.
[6] abbreviates: Table 1, CHO cells expressing hA3AR, [125I]I-AB-MECA.

Sequence of hA2AAR (P29274 whole entry): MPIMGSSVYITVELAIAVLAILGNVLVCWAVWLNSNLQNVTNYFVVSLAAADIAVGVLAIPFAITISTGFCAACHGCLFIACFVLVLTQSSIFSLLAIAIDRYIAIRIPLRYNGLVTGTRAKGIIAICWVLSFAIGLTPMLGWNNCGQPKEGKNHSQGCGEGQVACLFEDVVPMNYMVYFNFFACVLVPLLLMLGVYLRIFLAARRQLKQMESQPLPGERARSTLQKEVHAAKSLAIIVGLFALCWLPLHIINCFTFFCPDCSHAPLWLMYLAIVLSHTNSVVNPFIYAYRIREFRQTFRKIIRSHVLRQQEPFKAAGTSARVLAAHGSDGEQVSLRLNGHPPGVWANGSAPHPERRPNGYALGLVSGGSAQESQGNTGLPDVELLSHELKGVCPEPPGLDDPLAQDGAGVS
Sequence of hA3AR (P0DMS8 whole entry): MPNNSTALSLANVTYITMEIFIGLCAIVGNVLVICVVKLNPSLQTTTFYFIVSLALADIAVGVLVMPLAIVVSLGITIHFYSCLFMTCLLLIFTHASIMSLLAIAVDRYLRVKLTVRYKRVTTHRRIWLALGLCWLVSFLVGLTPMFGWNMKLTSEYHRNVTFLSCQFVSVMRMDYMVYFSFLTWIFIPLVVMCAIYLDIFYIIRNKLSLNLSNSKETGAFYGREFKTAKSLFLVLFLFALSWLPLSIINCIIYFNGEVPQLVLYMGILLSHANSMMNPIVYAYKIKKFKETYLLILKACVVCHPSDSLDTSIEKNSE

Regarding `Cn1cc2c(nc(NCCCCNC(=S)Nc3ccc(-c4c5ccc(=O)cc-5oc5cc(O)ccc45)c(C(=O)O)c3)n3nc(-c4ccco4)nc23)n1` [Compound 3], the “A1 % inhibition” value in data set [1] (setting [4]) was “(7 ± 5%)”. The Ki in data set [2] (setting [5]) came to 460 ± 60 nM; in data set [3] (setting [6]), 720 nM.
`Cn1cc2c(nc(NC(=O)Nc3ccc(CC(=O)NCCCCNC(=S)Nc4ccc5c(c4)C(=O)OC54c5ccc(O)cc5Oc5cc(O)ccc54)cc3)n3nc(-c4ccco4)nc23)n1` [Compound 23, N-(4-(3-(Fluorescein-5-yl)thioureido)butyl)-2-(4-(3-(2-(furan-2-yl)-8-methyl-8H-pyrazolo[4,3-e][1,2,4]triazolo[1,5-c]pyrimidin-5-yl)ureido)phenyl)acetamide]: in data set [1] (Table 3), the A1 % inhibition is recorded as 28% ± 8%. The results for the Ki in data set [2] (Table 3) and in data set [3] (Table 3) were 60.4 ± 6.2 nM and 73.6 ± 14.7 nM, respectively.
For `Cn1cc2c(nc(NC(=O)Nc3ccc(CC(=O)NCCCCN)cc3)n3nc(-c4ccco4)nc23)n1.O=C(O)C(F)(F)F` [Compound 18, N-(4-Aminobutyl)-2-(4-(3-(2-(furan-2-yl)-8-methyl-8H-pyrazolo[4,3-e][1,2,4]triazolo[1,5-c]pyrimidin-5-yl)ureido)phenyl)acetamide trifluoroacetate salt], the melting point lay in the range of 167 to 173 °C. Moreover, in data set [1] (Table 3), the A1 % inhibition is 4% ± 1%. Also, the Ki in data set [2] (Table 3) came to 172 ± 33 nM. In addition, the Ki in data set [3] (Table 3) turned out to be 6 ± 1.29 nM.
As for `Cn1cc2c(nc(NC(=O)Nc3ccc(CC(=O)NCCCCCN)cc3)n3nc(-c4ccco4)nc23)n1.O=C(O)C(F)(F)F` [Compound 19, N-(5-aminopentyl)-2-(4-(3-(2-(furan-2-yl)-8-methyl-8H-pyrazolo[4,3-e][1,2,4]triazolo[1,5-c]pyrimidin-5-yl)ureido)phenyl)acetamide trifluoroacetate salt], the melting point lay in the range of 170 to 178 °C. For the same molecule, the A1 % inhibition in data set [1] (Table 3) is 6% ± 4%. Further, the Ki in data set [2] (Table 3) came to 203 ± 52 nM. Moreover, the Ki in data set [3] (Table 3) amounted to 2.66 ± 0.48 nM.
In the case of `Cn1cc2c(nc(NNC(=S)Nc3ccc(-c4c5ccc(=O)cc-5oc5cc(O)ccc45)c(C(=O)O)c3)n3nc(-c4ccco4)nc23)n1` [Compound 1], the values for the Ki in data set [1] (Table 1), in data set [2] (setting [5]) and in data set [3] (setting [6]) were 9500 nM, 920 ± 110 nM and 780 nM, respectively.
Turning to `Cn1cc2c(nc(NC(=O)Nc3ccc(CC(=O)NCCCOCCOCCOCCCN)cc3)n3nc(-c4ccco4)nc23)n1.O=C(O)C(F)(F)F` [Compound 21, N-(3-(2-(2-(3-aminopropoxy)ethoxy)ethoxy)propyl)-2-(4-(3-(2-(furan-2-yl)-8-methyl-8H-pyrazolo[4,3-e][1,2,4]triazolo[1,5-c]pyrimidin-5-yl)ureido)phenyl)acetamide trifluoroacetate salt], the melting point is 133 to 140 °C. The A1 % inhibition in data set [1] (Table 3) is reported as 1% ± 1%. The Ki in data set [2] (Table 3) was 328 ± 77 nM. Besides, the inhibition constant (Ki) in data set [3] (Table 3) was found to be 10.3 ± 0.4 nM.
On to `Cn1cc2c(nc(NC(=O)Nc3ccc(CC(=O)NCCCCCNC(=S)Nc4ccc5c(c4)C(=O)OC54c5ccc(O)cc5Oc5cc(O)ccc54)cc3)n3nc(-c4ccco4)nc23)n1` [Compound 24, N-(5-(3-(Fluorescein-5-yl)thioureido)pentyl)-2-(4-(3-(2-(furan-2-yl)-8-methyl-8H-pyrazolo[4,3-e][1,2,4]triazolo[1,5-c]pyrimidin-5-yl)ureido)phenyl)acetamide], for which the A1 % inhibition in data set [1] (Table 3) is 21% ± 5%. For the same molecule, the figures for the Ki in data set [2] (Table 3) and in data set [3] (Table 3) were 106 ± 14 nM and 96.7 ± 26.9 nM, respectively.
For the molecule `Cn1cc2c(nc(NC(=O)Nc3ccc(CC(=O)NCCCN)cc3)n3nc(-c4ccco4)nc23)n1.O=C(O)C(F)(F)F` [Compound 17, N-(3-aminopropyl)-2-(4-(3-(2-(furan-2-yl)-8-methyl-8H-pyrazolo[4,3-e][1,2,4]triazolo[1,5-c]pyrimidin-5-yl)ureido)phenyl)acetamide trifluoroacetate salt], the melting point was 142 to 150 °C. Also, the A1 % inhibition in data set [1] (Table 3) is listed as 9% ± 3%. The Ki in data set [2] (Table 3) amounted to 175 ± 27 nM. For the same molecule, the Ki in data set [3] (Table 3) turned out to be 8.06 ± 2.47 nM.
On to `C#CCCCC(=O)Nc1nc2ccc(Cl)cc2c2nc(-c3ccco3)nn12` [Compound 8, N-(9-Chloro-2-(furan-2-yl)-[1,2,4]triazolo[1,5-c]quinazolin-5-yl)hex-5-ynamide], for which the Ki in data set [1] (Table 1) stood at 170 ± 40 nM; in data set [2] (setting [5]), 51 ± 10 nM; in data set [3] (setting [6]), 33.5 ± 10.1 nM.
In the case of `Cn1cc2c(nc(NCCCNC(=S)Nc3ccc(-c4c5ccc(=O)cc-5oc5cc(O)ccc45)c(C(=O)O)c3)n3nc(-c4ccco4)nc23)n1` [Compound 2], in data set [1] (setting [4]), the “A1 % inhibition” value is recorded as “(5 ± 2%)”. Moreover, the Ki in data set [2] (setting [5]) came to 2480 ± 420 nM; in data set [3] (setting [6]), 2390 ± 660 nM.
As to `Cn1cc2c(nc(NC(=O)Nc3ccc(CC(=O)NCCCOCCOCCOCCCNC(=S)Nc4ccc5c(c4)C(=O)OC54c5ccc(O)cc5Oc5cc(O)ccc54)cc3)n3nc(-c4ccco4)nc23)n1` [Compound 26, N-(1((Fluorescein-5-yl)amino)-1-thioxo-6,9,12-trioxa-2-azapentadecan-15-yl)-2-(4-(3-(2-(furan-2-yl)-8-methyl-8H-pyrazolo[4,3-e][1,2,4]triazolo[1,5-c]pyrimidin-5-yl)ureido)phenyl)acetamide], the A1 % inhibition in data set [1] (Table 3) is 32% ± 6%. Further, the values for the Ki in data set [2] (Table 3) and in data set [3] (Table 3) were 91.5 ± 20 nM and 207 ± 95 nM, respectively.
Take `Cn1cc2c(nc(NC(=O)Nc3ccc(CC(=O)NCCCNC(=S)Nc4ccc5c(c4)C(=O)OC54c5ccc(O)cc5Oc5cc(O)ccc54)cc3)n3nc(-c4ccco4)nc23)n1` [Compound 22, N-(3-(3-(Fluorescein-5-yl)thioureido)propyl)-2-(4-(3-(2-(furan-2-yl)-8-methyl-8H-pyrazolo[4,3-e][1,2,4]triazolo[1,5-c]pyrimidin-5-yl)ureido)phenyl)acetamide]: in data set [1] (Table 3), the A1 % inhibition is given as 27% ± 1%. The Ki in data set [2] (Table 3) amounted to 110 ± 18 nM; in data set [3] (Table 3) it was 104 ± 44 nM.
On to `C#CCCCC(=O)Nc1nc2nn(C)cc2c2nc(-c3ccco3)nn12` [Compound 37, N-(2-(furan-2-yl)-8-methyl-8H-pyrazolo[4,3-e][1,2,4]triazolo[1,5-c]pyrimidin-5-yl)hex-5-ynamide], for which the melting point is 210 to 216 °C (dec.). Moreover, in data set [2] (Table 3), the Ki stood at 199 nM. Further, the Ki in data set [3] (Table 3) turned out to be 4.11 ± 0.93 nM.
With `Cn1cc2c(nc(NCCOOCCCCNC(=S)Nc3ccc(-c4c5ccc(=O)cc-5oc5cc(O)ccc45)c(C(=O)O)c3)n3nc(-c4ccco4)nc23)n1` [Compound 5], in data set [1] (setting [4]), the “A1 % inhibition” value was “(0%)”. Further, the “A2A % Inhibition” value in data set [2] (setting [4]) was “(30 ± 6%)”. In addition, the Ki in data set [3] (setting [6]) stood at 9390 ± 1730 nM.
As to `Cn1cc2c(nc(NC(=O)Nc3ccc(CC(=O)O)cc3)n3nc(-c4ccco4)nc23)n1` [Compound 11, 2-(4-(3-(2-(furan-2-yl)-8-methyl-8H-pyrazolo[4,3-e][1,2,4]triazolo[1,5-c]pyrimidin-5-yl)ureido)phenyl)acetic acid], the Ki in data set [2] (Table 3) is 1010 nM; in data set [3] (Table 3), 128 ± 26 nM.
With `Cn1cc2c(nc(NCCCOCCOOCCCCCNC(=S)Nc3ccc(-c4c5ccc(=O)cc-5oc5cc(O)ccc45)c(C(=O)O)c3)n3nc(-c4ccco4)nc23)n1` [Compound 6], the “A1 % inhibition” value in data set [1] (setting [4]) was “(0%)”. Besides, the Ki in data set [2] (setting [5]) came out at 6010 ± 420 nM; in data set [3] (setting [6]), 7090 ± 370 nM.
With `C#CCCC(=O)Nc1nc2nn(C)cc2c2nc(-c3ccco3)nn12` [Compound 36, N-(2-(furan-2-yl)-8-methyl-8H-pyrazolo[4,3-e][1,2,4]triazolo[1,5-e]pyrimidin-5-yl)pent-4-ynamide], in data set [1] (Table 3), the A1 % inhibition is recorded as 55% ± 4%. The values for the Ki in data set [2] (Table 3) and in data set [3] (Table 3) were 133 ± 37 nM and 11 ± 0.6 nM, respectively.
For the molecule `Cn1cc2c(nc(NC(=O)Nc3ccc(CC(=O)NCCOCCOCCNC(=S)Nc4ccc5c(c4)C(=O)OC54c5ccc(O)cc5Oc5cc(O)ccc54)cc3)n3nc(-c4ccco4)nc23)n1` [Compound 25, N-(2-(2-(2-(3-(Fluorescein-5-yl)thioureido)ethoxy)ethoxy)ethyl)-2-(4-(3-(2-(furan-2-yl)-8-methyl-8H-pyrazolo[4,3-e][1,2,4]triazolo[1,5-c]pyrimidin-5-yl)ureido)phenyl)acetamide], the A1 % inhibition in data set [1] (Table 3) is 29% ± 1%. For the same molecule, the values for the Ki in data set [2] (Table 3) and in data set [3] (Table 3) were 95.7 ± 25.4 nM and 137 ± 28 nM, respectively.
For `Cn1cc2c(nc(NC(=O)CCCc3cn(CCCCCCNC(=O)c4ccc(-c5c6ccc(=N)c(S(=O)(=O)O)c-6oc6c(S(=O)(=O)O)c(N)ccc56)c(C(=O)O)c4)nn3)n3nc(-c4ccco4)nc23)n1` [MRS5763], the Ki in data set [2] (Table 3) came to 90 nM; in data set [3] (Table 3) it was 31.8 nM.
As to `Cn1cc2c(nc(NC(=O)Nc3ccc(CC(=O)NCCCCCNC(=O)OC(C)(C)C)cc3)n3nc(-c4ccco4)nc23)n1` [Compound 14, tert-Butyl (5-(2-(4-(3-(2-(furan-2-yl)-8-methyl-8H-pyrazolo[4,3-e][1,2,4]triazolo[1,5-c]pyrimidin-5-yl)ureido)phenyl)acetamido)pentyl)carbamate], the A1 % inhibition in data set [1] (Table 3) is given as 14% ± 3%. The Ki stood at 376 ± 96 nM in data set [2] (Table 3) and 4.47 ± 1.06 nM in data set [3] (Table 3).
Take `Cn1cc2c(nc(NCCCCCNC(=S)Nc3ccc(-c4c5ccc(=O)cc-5oc5cc(O)ccc45)c(C(=O)O)c3)n3nc(-c4ccco4)nc23)n1` [Compound 4]: the “A1 % inhibition” value in data set [1] (setting [4]) is reported as “(9 ± 5%)”. In addition, the values for the Ki in data set [2] (setting [5]) and in data set [3] (setting [6]) were 1750 ± 470 nM and 5660 ± 610 nM, respectively.
